Test results as given in ChEMBL document CHEMBL3627608, “Crystal structures of human RIP2 kinase catalytic domain complexed with ATP-competitive inhibitors: Foundations for understanding inhibitor selectivity” (Bioorg Med Chem, 2015).

Assays:
[1] = molecular target: Ribosomal protein S6 kinase alpha-4 (Homo sapiens) (UniProt O75676); experiment: Inhibition of MSK2 (unknown origin) at 10 uM after 120 mins P33 radiolabeled kinase activity assay
[2] = molecular target: Homeodomain-interacting protein kinase 1 (Homo sapiens) (UniProt Q86Z02); experiment: Inhibition of HIPK1 (unknown origin) at 10 uM after 120 mins P33 radiolabeled kinase activity assay
[3] = molecular target: Insulin receptor (Homo sapiens) (UniProt P06213); experiment: Inhibition of IR (unknown origin) at 10 uM after 120 mins P33 radiolabeled kinase activity assay
[4] = molecular target: Mitogen-activated protein kinase 3 (Homo sapiens) (UniProt P27361); experiment: Inhibition of ERK1 (unknown origin) at 10 uM after 120 mins P33 radiolabeled kinase activity assay
[5] = molecular target: T1, Cytoplasmic tyrosine-protein kinase BMX (Homo sapiens) (UniProt P51813); experiment: Inhibition of BMX (unknown origin) at 10 uM after 120 mins P33 radiolabeled kinase activity assay
T1 sequence (whole entry): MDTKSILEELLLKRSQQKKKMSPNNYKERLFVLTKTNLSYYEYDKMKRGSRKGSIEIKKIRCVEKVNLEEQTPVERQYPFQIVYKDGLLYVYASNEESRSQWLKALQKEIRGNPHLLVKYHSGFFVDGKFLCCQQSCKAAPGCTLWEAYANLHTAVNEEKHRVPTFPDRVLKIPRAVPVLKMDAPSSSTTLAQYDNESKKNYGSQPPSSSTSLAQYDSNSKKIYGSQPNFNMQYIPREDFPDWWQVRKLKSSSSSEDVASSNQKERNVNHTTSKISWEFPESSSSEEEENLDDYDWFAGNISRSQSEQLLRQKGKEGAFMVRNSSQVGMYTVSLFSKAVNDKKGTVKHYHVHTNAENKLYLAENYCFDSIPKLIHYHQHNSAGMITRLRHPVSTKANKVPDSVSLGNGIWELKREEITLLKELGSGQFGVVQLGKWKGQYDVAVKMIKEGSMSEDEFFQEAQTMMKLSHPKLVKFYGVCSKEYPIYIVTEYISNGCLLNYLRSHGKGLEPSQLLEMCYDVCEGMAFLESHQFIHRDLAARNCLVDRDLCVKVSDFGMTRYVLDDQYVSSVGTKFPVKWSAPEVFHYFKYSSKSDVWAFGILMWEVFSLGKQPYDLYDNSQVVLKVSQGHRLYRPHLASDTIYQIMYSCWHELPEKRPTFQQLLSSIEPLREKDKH

[6] = molecular target: T2, Serine/threonine-protein kinase Nek5 (Homo sapiens) (UniProt Q6P3R8); experiment: Inhibition of NEK5 (unknown origin) at 10 uM after 120 mins P33 radiolabeled kinase activity assay
T2 sequence (whole entry): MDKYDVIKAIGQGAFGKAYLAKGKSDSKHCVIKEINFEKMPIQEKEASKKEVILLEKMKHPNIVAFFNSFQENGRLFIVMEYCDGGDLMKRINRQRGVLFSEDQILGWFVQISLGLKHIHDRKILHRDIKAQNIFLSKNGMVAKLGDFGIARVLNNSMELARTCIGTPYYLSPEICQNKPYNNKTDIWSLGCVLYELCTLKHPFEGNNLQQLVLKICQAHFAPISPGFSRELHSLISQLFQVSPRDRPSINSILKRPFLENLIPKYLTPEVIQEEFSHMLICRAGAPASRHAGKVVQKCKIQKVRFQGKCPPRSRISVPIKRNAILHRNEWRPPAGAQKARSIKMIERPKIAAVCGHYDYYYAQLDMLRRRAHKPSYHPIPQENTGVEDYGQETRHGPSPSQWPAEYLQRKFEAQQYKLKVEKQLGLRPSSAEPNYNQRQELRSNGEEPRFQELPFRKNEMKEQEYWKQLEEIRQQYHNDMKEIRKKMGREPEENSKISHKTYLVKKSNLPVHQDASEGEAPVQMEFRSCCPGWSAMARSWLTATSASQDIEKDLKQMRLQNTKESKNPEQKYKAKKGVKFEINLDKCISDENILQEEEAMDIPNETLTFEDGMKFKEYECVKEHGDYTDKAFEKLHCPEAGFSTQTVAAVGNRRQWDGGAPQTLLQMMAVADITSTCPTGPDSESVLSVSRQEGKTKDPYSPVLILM

[7] = molecular target: T3, Tyrosine-protein kinase Mer (Homo sapiens) (UniProt Q12866); experiment: Inhibition of c-MER (unknown origin) at 10 uM after 120 mins P33 radiolabeled kinase activity assay
T3 sequence (whole entry): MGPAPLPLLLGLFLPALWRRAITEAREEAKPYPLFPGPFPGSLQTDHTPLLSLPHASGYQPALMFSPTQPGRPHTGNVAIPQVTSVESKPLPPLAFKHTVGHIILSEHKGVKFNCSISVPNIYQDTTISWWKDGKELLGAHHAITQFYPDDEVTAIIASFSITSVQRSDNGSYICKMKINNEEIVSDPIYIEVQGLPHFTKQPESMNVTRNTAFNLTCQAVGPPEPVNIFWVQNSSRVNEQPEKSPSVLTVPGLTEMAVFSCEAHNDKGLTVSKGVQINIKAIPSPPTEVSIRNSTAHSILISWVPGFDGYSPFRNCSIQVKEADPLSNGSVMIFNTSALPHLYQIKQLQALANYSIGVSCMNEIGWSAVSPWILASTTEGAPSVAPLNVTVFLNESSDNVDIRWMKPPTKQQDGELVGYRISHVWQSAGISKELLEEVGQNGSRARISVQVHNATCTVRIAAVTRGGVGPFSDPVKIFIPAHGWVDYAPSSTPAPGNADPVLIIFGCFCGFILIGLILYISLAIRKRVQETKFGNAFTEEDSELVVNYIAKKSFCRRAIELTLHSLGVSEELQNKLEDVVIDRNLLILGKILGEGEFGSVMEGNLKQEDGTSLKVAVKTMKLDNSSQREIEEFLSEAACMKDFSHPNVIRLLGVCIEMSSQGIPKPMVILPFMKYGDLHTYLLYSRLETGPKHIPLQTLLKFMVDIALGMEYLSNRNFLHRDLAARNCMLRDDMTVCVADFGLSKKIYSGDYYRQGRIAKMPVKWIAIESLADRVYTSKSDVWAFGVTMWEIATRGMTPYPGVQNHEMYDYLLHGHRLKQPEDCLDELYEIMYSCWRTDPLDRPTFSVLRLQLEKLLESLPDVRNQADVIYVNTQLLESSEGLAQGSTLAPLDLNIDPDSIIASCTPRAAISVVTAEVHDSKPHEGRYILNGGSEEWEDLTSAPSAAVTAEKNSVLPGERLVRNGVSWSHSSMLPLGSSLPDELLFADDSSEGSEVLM

Sequence of Ribosomal protein S6 kinase alpha-4 (Homo sapiens) (O75676 whole entry, looked up): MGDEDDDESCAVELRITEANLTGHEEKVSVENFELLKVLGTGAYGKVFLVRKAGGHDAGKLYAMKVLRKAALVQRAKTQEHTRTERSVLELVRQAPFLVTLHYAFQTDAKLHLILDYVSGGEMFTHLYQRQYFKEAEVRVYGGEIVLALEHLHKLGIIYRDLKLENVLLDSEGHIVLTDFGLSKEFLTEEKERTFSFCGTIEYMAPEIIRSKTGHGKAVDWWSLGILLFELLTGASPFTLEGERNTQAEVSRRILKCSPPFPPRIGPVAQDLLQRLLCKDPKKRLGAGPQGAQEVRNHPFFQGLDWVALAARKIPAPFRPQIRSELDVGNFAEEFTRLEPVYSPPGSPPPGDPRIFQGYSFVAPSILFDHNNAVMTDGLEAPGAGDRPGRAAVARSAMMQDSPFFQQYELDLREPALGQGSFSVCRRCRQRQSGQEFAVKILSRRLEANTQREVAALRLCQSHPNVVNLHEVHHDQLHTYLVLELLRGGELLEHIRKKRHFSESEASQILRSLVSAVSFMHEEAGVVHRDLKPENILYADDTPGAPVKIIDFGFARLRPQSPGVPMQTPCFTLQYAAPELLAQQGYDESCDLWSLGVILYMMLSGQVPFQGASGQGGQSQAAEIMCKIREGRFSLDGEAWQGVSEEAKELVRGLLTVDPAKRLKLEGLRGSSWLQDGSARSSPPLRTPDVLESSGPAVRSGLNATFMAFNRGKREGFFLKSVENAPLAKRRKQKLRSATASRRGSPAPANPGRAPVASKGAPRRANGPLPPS
Sequence of Mitogen-activated protein kinase 3 (Homo sapiens) (P27361 whole entry): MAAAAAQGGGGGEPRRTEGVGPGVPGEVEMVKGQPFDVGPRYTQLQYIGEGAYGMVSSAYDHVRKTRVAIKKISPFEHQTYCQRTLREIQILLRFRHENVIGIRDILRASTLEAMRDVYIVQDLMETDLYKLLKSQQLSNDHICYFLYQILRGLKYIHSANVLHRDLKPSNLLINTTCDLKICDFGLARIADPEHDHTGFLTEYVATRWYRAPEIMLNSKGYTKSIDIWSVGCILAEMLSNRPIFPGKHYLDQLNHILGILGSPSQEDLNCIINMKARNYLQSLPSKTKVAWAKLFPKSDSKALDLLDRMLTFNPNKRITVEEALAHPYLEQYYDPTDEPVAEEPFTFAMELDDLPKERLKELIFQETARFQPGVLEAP
Sequence of Homeodomain-interacting protein kinase 1 (Homo sapiens) (Q86Z02 whole entry, looked up): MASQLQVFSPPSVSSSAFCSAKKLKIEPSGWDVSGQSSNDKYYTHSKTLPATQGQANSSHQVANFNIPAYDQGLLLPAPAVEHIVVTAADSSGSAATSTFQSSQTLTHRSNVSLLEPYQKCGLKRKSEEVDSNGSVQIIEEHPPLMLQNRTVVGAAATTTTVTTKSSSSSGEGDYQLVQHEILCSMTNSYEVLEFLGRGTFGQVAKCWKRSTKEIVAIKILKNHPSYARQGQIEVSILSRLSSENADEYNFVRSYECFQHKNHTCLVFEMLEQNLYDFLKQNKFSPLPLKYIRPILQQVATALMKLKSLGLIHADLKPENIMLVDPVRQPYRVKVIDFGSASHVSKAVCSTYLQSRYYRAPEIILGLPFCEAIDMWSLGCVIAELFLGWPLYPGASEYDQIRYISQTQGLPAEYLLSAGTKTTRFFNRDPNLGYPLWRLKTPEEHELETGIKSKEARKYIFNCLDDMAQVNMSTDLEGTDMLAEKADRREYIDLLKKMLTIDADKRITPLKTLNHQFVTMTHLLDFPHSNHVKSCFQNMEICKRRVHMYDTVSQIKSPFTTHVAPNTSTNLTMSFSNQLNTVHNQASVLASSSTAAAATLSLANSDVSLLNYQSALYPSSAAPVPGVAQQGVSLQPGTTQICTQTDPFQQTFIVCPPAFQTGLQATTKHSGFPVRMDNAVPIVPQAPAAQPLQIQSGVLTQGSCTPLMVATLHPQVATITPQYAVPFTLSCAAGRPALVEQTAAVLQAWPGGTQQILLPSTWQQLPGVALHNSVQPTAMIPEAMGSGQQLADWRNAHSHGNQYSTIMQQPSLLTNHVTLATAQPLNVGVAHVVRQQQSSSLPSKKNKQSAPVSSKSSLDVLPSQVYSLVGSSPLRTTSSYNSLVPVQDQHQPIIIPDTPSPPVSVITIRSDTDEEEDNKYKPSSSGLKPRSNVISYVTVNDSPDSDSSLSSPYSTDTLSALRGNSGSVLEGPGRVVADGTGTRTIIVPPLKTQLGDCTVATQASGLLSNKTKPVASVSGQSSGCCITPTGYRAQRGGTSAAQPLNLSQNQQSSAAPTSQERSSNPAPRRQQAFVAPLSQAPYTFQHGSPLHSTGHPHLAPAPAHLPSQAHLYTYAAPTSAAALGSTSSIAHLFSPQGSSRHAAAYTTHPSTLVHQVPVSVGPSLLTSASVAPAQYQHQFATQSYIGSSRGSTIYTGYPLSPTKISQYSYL
Sequence of Insulin receptor (Homo sapiens) (P06213 28-758 limits assumed): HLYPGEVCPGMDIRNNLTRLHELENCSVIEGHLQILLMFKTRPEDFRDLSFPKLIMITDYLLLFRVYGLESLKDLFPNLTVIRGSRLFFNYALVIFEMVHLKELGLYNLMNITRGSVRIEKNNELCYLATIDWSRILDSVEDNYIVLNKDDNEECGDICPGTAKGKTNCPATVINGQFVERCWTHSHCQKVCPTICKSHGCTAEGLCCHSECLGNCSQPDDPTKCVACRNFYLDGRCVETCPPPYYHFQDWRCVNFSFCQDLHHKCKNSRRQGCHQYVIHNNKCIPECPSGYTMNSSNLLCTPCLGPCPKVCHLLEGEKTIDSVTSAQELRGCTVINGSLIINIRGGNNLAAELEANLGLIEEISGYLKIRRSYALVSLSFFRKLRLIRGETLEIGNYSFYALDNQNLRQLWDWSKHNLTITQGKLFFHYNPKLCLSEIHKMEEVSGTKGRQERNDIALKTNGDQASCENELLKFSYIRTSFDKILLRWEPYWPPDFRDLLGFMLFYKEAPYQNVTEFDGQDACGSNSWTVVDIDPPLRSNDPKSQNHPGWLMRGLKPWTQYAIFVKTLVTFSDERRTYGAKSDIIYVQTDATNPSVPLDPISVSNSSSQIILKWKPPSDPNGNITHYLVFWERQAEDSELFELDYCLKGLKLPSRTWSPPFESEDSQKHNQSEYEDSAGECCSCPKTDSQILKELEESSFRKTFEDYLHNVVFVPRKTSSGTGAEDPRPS
Sequence of Insulin receptor (Homo sapiens) (P06213 763-1382 limits assumed): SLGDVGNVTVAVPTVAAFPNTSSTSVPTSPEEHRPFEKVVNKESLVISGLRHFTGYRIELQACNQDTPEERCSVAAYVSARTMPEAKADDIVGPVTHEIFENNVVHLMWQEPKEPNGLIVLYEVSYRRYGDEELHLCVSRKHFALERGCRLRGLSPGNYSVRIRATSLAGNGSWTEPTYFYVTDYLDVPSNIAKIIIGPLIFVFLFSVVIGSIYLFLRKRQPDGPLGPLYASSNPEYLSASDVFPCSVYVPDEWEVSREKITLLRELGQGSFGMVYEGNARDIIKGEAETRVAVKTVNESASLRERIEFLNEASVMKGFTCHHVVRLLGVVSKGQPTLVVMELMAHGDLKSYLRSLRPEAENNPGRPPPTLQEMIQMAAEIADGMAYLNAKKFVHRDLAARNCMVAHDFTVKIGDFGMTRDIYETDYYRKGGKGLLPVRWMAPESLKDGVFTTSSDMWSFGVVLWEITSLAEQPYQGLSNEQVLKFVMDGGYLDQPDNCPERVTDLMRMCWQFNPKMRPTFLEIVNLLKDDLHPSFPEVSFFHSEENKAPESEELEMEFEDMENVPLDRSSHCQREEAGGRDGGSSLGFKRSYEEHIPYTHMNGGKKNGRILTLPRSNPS

inhibition [1] [%]	inhibition [2] [%]	inhibition [3] [%]	inhibition [4] [%]	inhibition [5] [%]	inhibition [6] [%]	inhibition [7] [%]	SMILES
4.4	-8.42	2.89	1.41	13.9	9.53	30.8	COCCNC(=O)c1ccc2c(c1)nc(-c1cnc(-c3ccc(Cl)cc3)[nH]1)n2CCOC
19.5	81.1	0.58	-3.91	98	50.5	98.2	CS(=O)(=O)c1cccc(Nc2nccc(-c3sc(N4CCOCC4)nc3-c3cccc(NS(=O)(=O)c4c(F)cccc4F)c3)n2)c1
70.5	8.52	21.6	3.03	15.5	27.3	77.9	CC(C)(C)c1cc(NC(=O)Nc2ccc(Oc3ccncc3)cc2)no1
